Patent publication US20060241026A1, “Novel cyclic peptides and use thereof as anti-microbial agents” (priority 2002, published 2006)
≈ marks a conversion by molar mass, not a printed value. Where two headings read alike, the source gives them in different places. Positions of bridges follow the written chain, without caps; N, C: chain ends. Residues, ends and D or L forms follow the SMILES beside them. No end group written: not given here.

How the values were obtained:
Format in all cases: cell-based
Micrococcus luteus = tested on: Micrococcus luteus
Description: (§1) The activity of the synthetic peptides was tested with respect to the Gram+ bacteria Mycrocossus luteus, Staphylococcus aureus, Staphylococcus epidermidis and Bacillus megaterium. The activities were determined according to the protocol described by HANCOCK et al. (http://www.interchg.ubc.ca/bobh/methods.htm)
(§2) The MIC was determined for each peptide by inhibition of growth in liquid medium. Doubling dilution of peptide was realized in the wells of a Microtest plate in a volume of 10 μl. The bacteria were grown in MUELLER HINTON BROTH (MHB, Difco) liquid medium. During the exponential growth phase, a solution with an optical density of 0.001 at 600 nm was produced, and 100 μl of this suspension were added to each well. The incubation lasted 24 h at 30° C., and the optical densities of each well were then measured at 600 nm. The value of the MIC corresponds to the first well for which the optical density had not changed.
(§3) The dishes were incubated for 24 h at 30° C. The value of the MBC corresponds to the lowest concentration of the peptide for which no colony developed.

Staphylococcus aureus = tested on: Staphylococcus aureus
Description: as §1, §2, §3

[1] = tested on: Micrococcus lysodeikticus
Description: as §2, §3

Bacillus megaterium = conditions: Bacillus
Description: as §1, §2, §3

[2] = tested on: Staphylococcus epidermidis
Description: as §1, §2, §3

Fusarium oxysporum = conditions: 24 h
Description: (§4) The anti-fungal activity was determined by calculating the MIC in a growth inhibition assay for the shrimp parasite fungus Fusarium oxysporum, in liquid phase, according to the protocol described by FELHBAM et al. (J. Biol. Chem., 1994, 269:33159-63). Doubling dilutions of each peptide were realized in the wells of a Microtest plate in a volume of 10 μl. 90 μl of spores resuspended in potato dextrose broth medium (DIFCO) at a final concentration of 10^4 spores/ml were added to each well. The growth inhibition was measured after incubation for 24 h at 25° C. in the dark, by observation under an optical microscope and measurement of the increase in OD at 600 nm. The value of the MIC corresponds to the first well for which the optical density had not increased.

[3] = tested on: Gram+ and Gram− bacteria and a filamentous fungus; assay: Antibiotic tests on Gram+ and Gram- bacteria and on a filamentous fungus, summary in words; conditions: compared with the native molecule or the minimal loop
Description: as §1, §2, §3, §4
Using the 3-D structure of the native molecule as a basis, said molecule was fractionated into 17 elements (table I). All these fragments were synthesized and their activities were assayed using antibiotic tests on Gram+ and Gram− bacteria and on a filamentous fungus. The minimum inhibitory concentration (MIC) and minimum […] concentration (MBC) of each peptide were thus determined and were compared with those of the native molecule.

## GFGSPNNYQSHRHSKSIPGR [SEQ ID NO:9]
Micrococcus luteus; 24 h
  MIC on M leuteus: >75 µM

## CC(C)C[C@@H]1NC(=O)[C@H](CCCNC(=N)N)NC(=O)[C@H](CCCCN)NC(=O)[C@H](Cc2c[nH]c3ccccc23)NC(=O)CNC(=O)CNC(=O)[C@@H](N)CSSC[C@@H](C(=O)O)NC(=O)[C@H](CCCNC(=N)N)NC1=O [SEQ ID NO:19, C^(S)GGWKRLRC^(S)] (H-CGGWKRLRC-OH; disulfide 1-9; N-terminus and C-terminus assumed)
Staphylococcus aureus
  Staphylococcus aureus MBC: 20 µM
  Staphylococcus aureus MIC: 33 µM
[1]
  Micrococcus lysodeikticus MIC: 13 µM

## CC(C)C[C@@H]1NC(=O)[C@H](CCCNC(=N)N)NC(=O)[C@H](Cc2c[nH]cn2)NC(=O)[C@H](Cc2c[nH]c3ccccc23)NC(=O)CNC(=O)CNC(=O)[C@@H](NC(=O)[C@H](Cc2ccc(O)cc2)NC(=O)CNC(=O)CNC(=O)[C@@H](N)CO)CSSC[C@@H](C(=O)N[C@H](C(=O)N[C@@H](CO)C(=O)N[C@@H](Cc2ccc(O)cc2)C(=O)N[C@@H](CCCNC(=N)N)C(=O)N[C@@H](CO)C(=O)NCC(=O)O)[C@@H](C)O)NC(=O)[C@H](CCCNC(=N)N)NC1=O [SEQ ID NO:6, SGGYC^(S)GGWHRLRC^(S)TSYRSG] (H-SGGYCGGWHRLRCTSYRSG-OH; disulfide 5-13; N-terminus and C-terminus assumed)
Bacillus megaterium
  Bacillus megaterium MBC: >75 µM
  Bacillus megaterium MIC: 25 µM
Staphylococcus aureus
  Staphylococcus aureus MBC: 75 µM
  Staphylococcus aureus MIC: 19 µM
[2]
  Staphylococcus epidermidis MBC: >75 µM
  Staphylococcus epidermidis MIC: 24 µM
Micrococcus luteus
  Micrococcus luteus MBC: >75 µM
  Micrococcus luteus MIC: 29 µM
Micrococcus luteus; 24 h
  MIC on M leuteus: 32 µM (≈ 67.2 µg/mL)
Fusarium oxysporum
  Fusarium oxysporum MIC: 14 µM

## CC(C)C[C@@H]1NC(=O)[C@H](CCCNC(=N)N)NC(=O)[C@H](Cc2c[nH]cn2)NC(=O)[C@H](Cc2c[nH]c3ccccc23)NC(=O)CNC(=O)CNC(=O)[C@H](CO)NC(=O)[C@H](Cc2ccc(O)cc2)NC(=O)CNC(=O)CNC(=O)[C@@H](N)CSSC[C@@H](C(=O)NCC(=O)O)NC(=O)[C@H](CCCNC(=N)N)NC(=O)[C@H](Cc2ccc(O)cc2)NC(=O)[C@H](CO)NC(=O)[C@H]([C@@H](C)O)NC(=O)[C@H](CO)NC(=O)[C@H](CCCNC(=N)N)NC1=O [SEQ ID NO:5, C^(S)GGYSGGWHRLRSTSYRC^(S)G] (H-CGGYSGGWHRLRSTSYRCG-OH; disulfide 1-18; N-terminus and C-terminus assumed)
Bacillus megaterium
  Bacillus megaterium MBC: 75 µM
  Bacillus megaterium MIC: 24 µM
Staphylococcus aureus
  Staphylococcus aureus MBC: >75 µM
  Staphylococcus aureus MIC: 14 µM
[2]
  Staphylococcus epidermidis MBC: >75 µM
  Staphylococcus epidermidis MIC: 35 µM
Micrococcus luteus
  Micrococcus luteus MBC: 18 µM
  Micrococcus luteus MIC: 18 µM
Micrococcus luteus; 24 h
  MBC on M leuteus: 13 µM (≈ 27.3 µg/mL)
Fusarium oxysporum
  Fusarium oxysporum MIC: 18.5 µM

## SGGWHRLRS [SEQ ID NO:17, SGGWHRLRS]
Micrococcus luteus; 24 h
  MIC on M leuteus: >75 µM
[3]
  anti-microbial activity (in words): devoid of activity

## GFGSPNNYQS [SEQ ID NO:8, GFGSPNNYQS]
Micrococcus luteus; 24 h
  MIC on M leuteus: >75 µM

## PNNYQSHRHSKSIPGRGR [SEQ ID NO:10, PNNYQSHRHSKSIPGRGR]
Micrococcus luteus; 24 h
  MIC on M leuteus: >75 µM

## N=C(N)NCCC[C@@H]1NC(=O)[C@H](CCCCN)NC(=O)[C@H](CCCNC(=N)N)NC(=O)[C@H](CCCCN)NC(=O)[C@H](Cc2c[nH]c3ccccc23)NC(=O)[C@H](CCCCN)NC(=O)[C@@H](N)CSSC[C@@H](C(=O)O)NC1=O [SEQ ID NO:22, C^(S)KWKRKRC^(S)] (H-CKWKRKRC-OH; disulfide 1-8; N-terminus and C-terminus assumed)
Staphylococcus aureus; Table III
  Staphylococcus aureus MBC: 14.8 µM
  Staphylococcus aureus MIC: 6.6 µM
[1]; Table III
  Micrococcus lysodeikticus MBC: 14.8 µM
  Micrococcus lysodeikticus MIC: 14.8 µM

## N=C(N)NCCC[C@@H]1NC(=O)[C@H](CCCCN)NC(=O)[C@H](Cc2c[nH]c3ccccc23)NC(=O)[C@@H](N)CSSC[C@@H](C(=O)O)NC(=O)[C@H](CCCCN)NC1=O [SEQ ID NO:24, C^(S)WKRKC^(S)] (H-CWKRKC-OH; disulfide 1-6; N-terminus and C-terminus assumed)
Staphylococcus aureus; Table III
  Staphylococcus aureus MBC: >50 µM
  Staphylococcus aureus MIC: >50 µM
[1]; Table III
  Micrococcus lysodeikticus MIC: >50 µM
[3]
  anti-microbial activity (in words): does not exhibit any significant biological activity

## NYQSHRHSKS [SEQ ID NO:13, NYQSHRHSKS]
Micrococcus luteus; 24 h
  MIC on M leuteus: >75 µM

## N=C(N)NCCC[C@@H]1NC(=O)[C@H](CCCCN)NC(=O)[C@H](CCCNC(=N)N)NC(=O)[C@H](CCCCN)NC(=O)[C@H](Cc2c[nH]c3ccccc23)NC(=O)[C@H](CCCCN)NC(=O)[C@H](CCCCN)NC(=O)[C@@H](N)CSSC[C@@H](C(=O)O)NC1=O [SEQ ID NO:21, C^(S)KKWKRKRC^(S)] (H-CKKWKRKRC-OH; disulfide 1-9; N-terminus and C-terminus assumed)
Staphylococcus aureus; Table III
  Staphylococcus aureus MBC: 9.9 µM
  Staphylococcus aureus MIC: 4.4 µM
[2]; Table III
  Staphylococcus epidermidis MIC: 6.8 µM
[1]; Table III
  Micrococcus lysodeikticus MBC: 9.9 µM
  Micrococcus lysodeikticus MIC: 6 µM

## N=C(N)NCCC[C@@H]1NC(=O)[C@H](CCCCN)NC(=O)[C@H](CCCNC(=N)N)NC(=O)[C@H](CCCCN)NC(=O)[C@H](Cc2c[nH]c3ccccc23)NC(=O)[C@@H](N)CSSC[C@@H](C(=O)O)NC1=O [SEQ ID NO:23, C^(S)WKRKRC^(S)] (H-CWKRKRC-OH; disulfide 1-7; N-terminus and C-terminus assumed)
Staphylococcus aureus; Table III
  Staphylococcus aureus MBC: 22.2 µM
  Staphylococcus aureus MIC: 22.2 µM
[1]; Table III
  Micrococcus lysodeikticus MIC: 22.2 µM
[3]
  anti-microbial activity (in words): weaker

## RLRSTSYRSG [SEQ ID NO:18, RLRSTSYRSG]
Micrococcus luteus; 24 h
  MIC on M leuteus: >75 µM

## CC[C@H](C)[C@@H]1NC(=O)[C@H](CO)NC(=O)[C@H](CCCCN)NC(=O)[C@@H](NC(=O)[C@H](Cc2c[nH]cn2)NC(=O)[C@H](CCCNC(=N)N)NC(=O)[C@H](Cc2c[nH]cn2)NC(=O)[C@H](CO)NC(=O)[C@H](CCC(N)=O)NC(=O)[C@H](Cc2ccc(O)cc2)NC(=O)[C@H](CC(N)=O)NC(=O)[C@H](CC(N)=O)NC(=O)[C@@H]2CCCN2)CSSC[C@@H](C(=O)O)NC(=O)[C@H](CCCNC(=N)N)NC(=O)CNC(=O)[C@@H]2CCCN2C1=O [SEQ ID NO:11, PNNYQSHRHCKSIPGRC] (H-PNNYQSHRHCKSIPGRC-OH; disulfide 10-17; N-terminus and C-terminus assumed)
Micrococcus luteus; 24 h
  MIC on M leuteus: >75 µM

## SKSIPGRSG [SEQ ID NO:14, SKSIPGRSG]
Micrococcus luteus; 24 h
  MIC on M leuteus: >75 µM
[3]
  anti-microbial activity (in words): show no activity

## PNNYQSHRHSKSIPGRS [SEQ ID NO:12, PNNYQSHRHSKSIPGRS]
Micrococcus luteus; 24 h
  MIC on M leuteus: >75 µM

## N=C(N)NCCC[C@@H]1NC(=O)[C@H](CCCCN)NC(=O)[C@H](CCCNC(=N)N)NC(=O)[C@H](CCCCN)NC(=O)[C@H](Cc2c[nH]c3ccccc23)NC(=O)CNC(=O)CNC(=O)[C@@H](N)CSSC[C@@H](C(=O)O)NC1=O [SEQ ID NO:20, C^(S)GGWKRKRC^(S)] (H-CGGWKRKRC-OH; disulfide 1-9; N-terminus and C-terminus assumed)
Staphylococcus aureus
  Staphylococcus aureus MBC: 16 µM
  Staphylococcus aureus MIC: 23 µM
[1]
  Micrococcus lysodeikticus MIC: 8 µM

## C[C@@H](O)[C@@H]1NC(=O)[C@H](CO)NC(=O)[C@H](CO)NC(=O)[C@H](Cc2ccc(O)cc2)NC(=O)CNC(=O)CNC(=O)[C@@H](N)CSSC[C@@H](C(=O)NCC(=O)O)NC(=O)[C@H](CCCNC(=N)N)NC(=O)[C@H](Cc2ccc(O)cc2)NC(=O)[C@H](CO)NC1=O [SEQ ID NO:16, CGGYSSTSYRCG] (H-CGGYSSTSYRCG-OH; disulfide 1-11; N-terminus and C-terminus assumed)
Micrococcus luteus; 24 h
  MIC on M leuteus: >75 µM
[3]
  anti-microbial activity (in words): do not comprise any intrinsic activity

## CC[C@H](C)[C@@H]1NC(=O)[C@H](CO)NC(=O)[C@H](CCCCN)NC(=O)[C@@H](N)CSSC[C@@H](C(=O)NCC(=O)O)NC(=O)[C@H](CCCNC(=N)N)NC(=O)CNC(=O)[C@@H]2CCCN2C1=O [SEQ ID NO:15, CKSIPGRCG] (H-CKSIPGRCG-OH; disulfide 1-8; N-terminus and C-terminus assumed)
Micrococcus luteus; 24 h
  MIC on M leuteus: >75 µM
[3]
  anti-microbial activity (in words): show no activity
